Assays:
Format in all cases: physicochemical
[1] = Degradation of the active stereoisomer S,S at 40° C. and 75% R.H.
Description: (§1) In the following Tables 14-25, the percentage values are reported of the degradation of the active stereoisomer S,S calculated at 40° C. and 75% R.H. (Tables 14-19) and at 25° C. and 65% R.H.

[2] = Degradation of the active stereoisomer S,S at 25° C. and 65% R.H.
Description: as §1

[3] = Moisture % K.F. of the stability samples; conditions: sample used in the stability test
Description: In the following Tables 2-13, the percentage values are repotted which were obtained in the stability tests carried out on the products of examples 1-6. The stability tests were carried out in thermostated heaters at 40° C. and 75% R.H (tables 2-7) as well as 25° C. and 60% R.H. (tables 8-13), preserving the samples in heat-sealed aluminium/aluminium bags according to the following criteria: […]

[4] = Stability test in thermostated heaters at 25° C. and 60% R.H., active ingredient %; conditions: heat-sealed aluminium/aluminium bags
Description: (§2) In the following Tables 2-13, the percentage values are repotted which were obtained in the stability tests carried out on the products of examples 1-6. The stability tests were carried out in thermostated heaters at 40° C. and 75% R.H (tables 2-7) as well as 25° C. and 60% R.H. (tables 8-13), preserving the samples in heat-sealed aluminium/aluminium bags according to the following criteria: the active ingredient % was determined for every sampling point taken under consideration.

[5] = Stability test in thermostated heaters at 40° C. and 75% R.H., active ingredient %; conditions: heat-sealed aluminium/aluminium bags
Description: as §2

Row | Structure (SMILES) | percentage of active S,S stereoisomer remaining ([1]; 30 days) [%] | percentage of active S,S stereoisomer remaining ([1]; 60 days) [%] | percentage of active S,S stereoisomer remaining ([1]; 90 days) [%] | percentage of active S,S stereoisomer remaining ([1]; 120 days) [%] | percentage of active S,S stereoisomer remaining ([1]; 180 days) [%] | percentage of active S,S stereoisomer remaining ([1]; T = 0) [%] | percentage of the active S,S stereoisomer remaining ([2]; 30 days) [%] | percentage of the active S,S stereoisomer remaining ([2]; 90 days) [%] | percentage of the active S,S stereoisomer remaining ([2]; 180 days) [%] | percentage of the active S,S stereoisomer remaining ([2]; 360 days) [%] | percentage of the active S,S stereoisomer remaining ([2]; 720 days) [%] | percentage of the active S,S stereoisomer remaining ([2]; T = 0) [%] | Moisture % K.F. [3] [%] | stability test percentage value (active ingredient %), 30 days [4] [%] | stability test percentage value (active ingredient %), 90 days [4] [%] | stability test percentage value (active ingredient %), 180 days [4] [%] | stability test percentage value (active ingredient %), 360 days [4] [%] | stability test percentage value (active ingredient %), 720 days [4] [%] | stability test percentage value (active ingredient %), 30 days [5] [%] | stability test percentage value (active ingredient %), 60 days [5] [%] | further results
1 | C[S+](CCC(N)C(=O)[O-])C[C@H]1O[C@@H](n2cnc3c(N)ncnc32)[C@H](O)[C@@H]1O.C[S+](CCC(N)C(=O)[O-])C[C@H]1O[C@@H](n2cnc3c(N)ncnc32)[C@H](O)[C@@H]1O.O=S(=O)(O)O.[Ca+2].[Cl-].[Cl-] (some centres unmarked) [SAMe•0.5H2SO4•0.5CaCl2] | 89.8 | 86.8 | 83.6 | 80.6 | 77.6 | 98.2 | 97.8 | 96.7 | 93.6 | 90.8 | 88.6 | 98.2 | 0.23 | 0.23 | 0.35 | 0.57 | 0.78 | 0.99 | 0.48 | 0.76 | stability test percentage value (active ingredient %), 90 days [5]: 1.48%; stability test percentage value (active ingredient %), 120 days [5]: 1.98%; stability test percentage value (active ingredient %), 180 days [5]: 3.99%
2 | C[S+](CCC(N)C(=O)[O-])C[C@H]1O[C@@H](n2cnc3c(N)ncnc32)[C@H](O)[C@@H]1O.Cl.Cl.[Cl-].[Cl-].[Mg+2] (some centres unmarked) [SAMe•2.0HCl•1.0MgCl2] | 92.9 | 87.8 | 83.4 | 82.1 | 78.2 | 97.4 | 96.6 | 95.7 | 94.7 | 92.5 | 88.0 | 97.4 | 0.44 | 0.17 | 0.37 | 0.58 | 0.74 | 0.98 | 0.27 | 0.45 | stability test percentage value (active ingredient %), 90 days [5]: 1.14%; stability test percentage value (active ingredient %), 120 days [5]: 1.45%; stability test percentage value (active ingredient %), 180 days [5]: 1.89%
3 | C[S+](CCC(N)C(=O)[O-])C[C@H]1O[C@@H](n2cnc3c(N)ncnc32)[C@H](O)[C@@H]1O.C[S+](CCC(N)C(=O)[O-])C[C@H]1O[C@@H](n2cnc3c(N)ncnc32)[C@H](O)[C@@H]1O.Cl.[Cl-].[Cl-].[Mg+2] (some centres unmarked) [SAMe•0.5HCl•0.5MgCl2] | 92.5 | 89.8 | 84.5 | 82.6 | 76.6 | 98.9 | 96.5 | 94.8 | 93.7 | 92.6 | 89.5 | 98.9 | 0.54 | 0.35 | 0.43 | 0.76 | 0.90 | 1.07 | 0.56 | 0.87 | stability test percentage value (active ingredient %), 90 days [5]: 1.45%; stability test percentage value (active ingredient %), 120 days [5]: 1.99%; stability test percentage value (active ingredient %), 180 days [5]: 2.67%
4 | C[S+](CCC(N)C(=O)[O-])C[C@H]1O[C@@H](n2cnc3c(N)ncnc32)[C@H](O)[C@@H]1O.C[S+](CCC(N)C(=O)[O-])C[C@H]1O[C@@H](n2cnc3c(N)ncnc32)[C@H](O)[C@@H]1O.O=S(=O)(O)O.O=S(=O)([O-])[O-].[Mg+2] (some centres unmarked) [SAMe•0.5H2SO4•0.5Mg2SO4•0.4H2O] | 90.8 | 88.8 | 85.6 | 82.6 | 78.6 | 98.2 | 97.8 | 96.8 | 95.6 | 92.6 | 88.6 | 98.2 | 0.57 | 0.23 | 0.45 | 0.65 | 0.87 | 0.99 | 0.57 | 0.65 | stability test percentage value (active ingredient %), 90 days [5]: 0.96%; stability test percentage value (active ingredient %), 120 days [5]: 1.40%; stability test percentage value (active ingredient %), 180 days [5]: 2.18%

Reference: patent US8258115B2, “Stable salts of S-adenosylmethionine and process for the preparation thereof” (priority 2007, dated 2012)
